Consider 37 molecules from ChEMBL document CHEMBL1143223, “Synthesis and in vitro activity of 1-(2,3-dichlorophenyl)-N-(pyridin-3-ylmethyl)-1H-1,2,4-triazol-5-amine and 4-(2,3-dichlorophenyl)-N-(pyridin-3-ylmethyl)-4H-1,2,4-triazol-3-amine P2X7 antagonists” (Bioorg Med Chem Lett, 2008).

The target of experiment [1] is T1, P2X purinoceptor 7 (Rattus norvegicus, UniProt Q64663).
T1 sequence (Q64663 whole entry): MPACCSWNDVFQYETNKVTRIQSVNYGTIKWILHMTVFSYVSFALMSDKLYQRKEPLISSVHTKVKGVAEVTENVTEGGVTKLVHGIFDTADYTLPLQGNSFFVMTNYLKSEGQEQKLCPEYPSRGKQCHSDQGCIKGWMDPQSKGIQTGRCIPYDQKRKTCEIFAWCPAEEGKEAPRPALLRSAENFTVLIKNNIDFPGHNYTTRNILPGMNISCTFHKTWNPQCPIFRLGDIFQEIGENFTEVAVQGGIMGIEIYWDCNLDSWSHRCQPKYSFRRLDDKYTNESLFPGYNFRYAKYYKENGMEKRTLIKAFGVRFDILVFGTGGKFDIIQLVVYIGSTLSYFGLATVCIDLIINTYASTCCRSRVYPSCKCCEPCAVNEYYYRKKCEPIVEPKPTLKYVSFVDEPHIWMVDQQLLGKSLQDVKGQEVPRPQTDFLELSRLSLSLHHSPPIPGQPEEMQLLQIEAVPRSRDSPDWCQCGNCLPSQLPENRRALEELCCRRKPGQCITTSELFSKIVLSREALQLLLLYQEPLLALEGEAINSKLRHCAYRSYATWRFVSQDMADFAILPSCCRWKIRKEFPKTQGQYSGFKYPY
The experiment can be described thus: Antagonist activity at rat recombinant P2X7 receptor assessed as inhibition of BzATP-induced calcium flux by FLIPR assay. The experiment is classed as functional. Background: Calcium assays in cells follow changes in intracellular calcium, usually with a dye or a luminescent sensor.

Experiment [2] concerns the target T2, P2X purinoceptor 7 (Homo sapiens, UniProt Q99572).
T2 sequence (Q99572 whole entry): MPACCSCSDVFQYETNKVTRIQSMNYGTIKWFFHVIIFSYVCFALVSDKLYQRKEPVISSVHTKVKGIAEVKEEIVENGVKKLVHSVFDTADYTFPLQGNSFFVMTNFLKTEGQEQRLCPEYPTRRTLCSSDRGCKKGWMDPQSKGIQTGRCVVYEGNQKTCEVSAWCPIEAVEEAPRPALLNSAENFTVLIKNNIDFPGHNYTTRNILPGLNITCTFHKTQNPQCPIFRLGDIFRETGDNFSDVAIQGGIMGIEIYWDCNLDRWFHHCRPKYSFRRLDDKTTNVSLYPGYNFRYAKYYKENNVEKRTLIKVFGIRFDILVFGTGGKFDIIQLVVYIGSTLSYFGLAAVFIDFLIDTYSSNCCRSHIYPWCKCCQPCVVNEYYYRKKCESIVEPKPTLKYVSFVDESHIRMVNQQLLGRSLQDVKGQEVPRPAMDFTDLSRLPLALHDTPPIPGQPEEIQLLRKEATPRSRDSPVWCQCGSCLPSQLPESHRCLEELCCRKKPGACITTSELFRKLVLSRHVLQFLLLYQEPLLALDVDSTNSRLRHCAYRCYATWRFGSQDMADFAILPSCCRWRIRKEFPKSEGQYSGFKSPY
The experiment can be described thus: Antagonist activity at human recombinant P2X7 receptor assessed as inhibition of BzATP-induced calcium flux by FLIPR assay. It is filed as functional.

Each structure is given as a SMILES string.

On to `Clc1cccc(-n2cnnc2NCc2cccnc2Oc2cccnc2)c1Cl`, for which the values for the IC50 at P2X purinoceptor 7 [1] and on P2X purinoceptor 7 [2] were 35.5 nM and 30.9 nM, respectively.
In the case of `COc1ccccc1Nc1ncnn1-c1cccc(Cl)c1Cl`, the IC50 was 2040 nM at P2X purinoceptor 7 [1] and 102 nM at P2X purinoceptor 7 [2].
Take `CCOc1ccccc1CNc1ncnn1-c1cccc(Cl)c1Cl`: the IC50 is 490 nM on P2X purinoceptor 7 [1] and 45.7 nM at P2X purinoceptor 7 [2].
For the molecule `Clc1cccc(-n2ncnc2NCc2cccnc2N2CCCC2)c1Cl`, the IC50 on P2X purinoceptor 7 [1] was 28.2 nM; at P2X purinoceptor 7 [2], 12.6 nM.
As for `Clc1cccc(-n2ncnc2NCc2ccncc2)c1Cl`, the 50% inhibitory concentration (IC50) at P2X purinoceptor 7 [1] and on P2X purinoceptor 7 [2] was more than 10000 nM in each case.
On to `Cc1ncccc1CNc1nncn1-c1cccc(Cl)c1Cl`, for which the IC50 on P2X purinoceptor 7 [1] is 178 nM; on P2X purinoceptor 7 [2], 28.8 nM.
As for `Clc1cccc(-n2ncnc2NCc2cccnc2-c2ccsc2)c1Cl`, the figures for the IC50 at P2X purinoceptor 7 [1] and at P2X purinoceptor 7 [2] were 138 nM and 15.1 nM, respectively.
For the molecule `Clc1cccc(-n2ncnc2NCc2cccnc2Oc2cccnc2)c1Cl`, the values for the IC50 on P2X purinoceptor 7 [1] and on P2X purinoceptor 7 [2] were 129 nM and 13.8 nM, respectively.
In the same order, the values of `Clc1cccc(-n2ncnc2Nc2ccccc2N2CCOCC2)c1Cl` are 4900 nM and 3390 nM.
In the same order, the values of `Clc1cccc(-n2ncnc2Nc2ccccc2)c1Cl` are 3890 nM and 363 nM.
On to `Clc1cccc(-n2ncnc2NCc2cccnc2)c1Cl`, for which the IC50 was 1320 nM on P2X purinoceptor 7 [1] and 117 nM at P2X purinoceptor 7 [2].
With `CC(C)N1CCCN(c2ncccc2CNc2nncn2-c2cccc(Cl)c2Cl)CC1`, on P2X purinoceptor 7 [2], the IC50 is 67.6 nM.
For `NC(=O)CN1CCCN(c2ncccc2CNc2nncn2-c2cccc(Cl)c2Cl)CC1`, at P2X purinoceptor 7 [2], the IC50 was 32.4 nM.
For `Cc1ccccc1Nc1ncnn1-c1cccc(Cl)c1Cl`, the IC50 on P2X purinoceptor 7 [1] is 240 nM; at P2X purinoceptor 7 [2], 17.8 nM.
As for `CCc1ccccc1Nc1ncnn1-c1cccc(Cl)c1Cl`, the results for the IC50 on P2X purinoceptor 7 [1] and on P2X purinoceptor 7 [2] were 288 nM and 45.7 nM, respectively.
In the same order, the values of `COc1cccc(CNc2ncnn2-c2cccc(Cl)c2Cl)c1OC` are 135 nM and 30.9 nM.
`Clc1cccc(-n2cnnc2NCc2cccnc2N2CCCC2)c1Cl`: the IC50 is 12 nM on P2X purinoceptor 7 [1] and 14.8 nM at P2X purinoceptor 7 [2].
Regarding `Cc1cccc(CNc2ncnn2-c2cccc(Cl)c2Cl)c1`, the IC50 on P2X purinoceptor 7 [1] was 1020 nM; at P2X purinoceptor 7 [2], 155 nM.
`Cc1ccc(CNc2ncnn2-c2cccc(Cl)c2Cl)cc1`: the IC50 on P2X purinoceptor 7 [1] is 7080 nM; at P2X purinoceptor 7 [2], 479 nM.
On to `Clc1cccc(-n2ncnc2NCc2ccccc2)c1Cl`, for which the IC50 is 209 nM at P2X purinoceptor 7 [1] and 47.9 nM at P2X purinoceptor 7 [2].
In the same order, the values of `Cc1cccc(CNc2ncnn2-c2cccc(Cl)c2Cl)c1C` are 631 nM and 67.6 nM.
On the same counts, the results for `Clc1cccc(-c2nnnn2Cc2cccnc2)c1Cl` are 309 nM and 123 nM.
In the same order, the values of `Clc1cccc(-n2ncnc2NCc2ccccc2Oc2cccnc2)c1Cl` are 158 nM and 46.8 nM.
Take `Clc1cccc(-n2ncnc2NCc2cccnc2N2CCC2)c1Cl`: the IC50 on P2X purinoceptor 7 [1] was 25.7 nM; at P2X purinoceptor 7 [2] it was 9.12 nM.
With `Clc1cccc(-n2cnnc2NCc2cccnc2-c2ccsc2)c1Cl`, the IC50 is 36.3 nM on P2X purinoceptor 7 [1] and 11 nM on P2X purinoceptor 7 [2].
For `Cc1ccccc1CNc1ncnn1-c1cccc(Cl)c1Cl`, the IC50 was 200 nM on P2X purinoceptor 7 [1] and 20.9 nM at P2X purinoceptor 7 [2].
On the same counts, the results for `Cc1nnc(NCc2cccnc2-c2ccsc2)n1-c1cccc(Cl)c1Cl` are 45.7 nM and 39.8 nM.
In the same order, the values of `COc1ccccc1CNc1ncnn1-c1cccc(Cl)c1Cl` are 708 nM and 57.5 nM.
For the molecule `CCOc1ccccc1Nc1ncnn1-c1cccc(Cl)c1Cl`, the IC50 at P2X purinoceptor 7 [1] was 11000 nM; on P2X purinoceptor 7 [2] it was 1860 nM.
On the same counts, the results for `CS(=O)(=O)c1ccccc1CNc1ncnn1-c1cccc(Cl)c1Cl` are 39.8 nM and 20 nM.
For `CSc1ccccc1CNc1ncnn1-c1cccc(Cl)c1Cl`, the IC50 on P2X purinoceptor 7 [1] is 288 nM; on P2X purinoceptor 7 [2], 49 nM.
`COc1cccc(CNc2ncnn2-c2cccc(Cl)c2Cl)c1`: the IC50 is 1380 nM on P2X purinoceptor 7 [1] and 288 nM on P2X purinoceptor 7 [2].
Regarding `Clc1cccc(-n2cnnc2NCc2cccnc2)c1Cl`, the IC50 on P2X purinoceptor 7 [1] is 1120 nM; at P2X purinoceptor 7 [2], 355 nM.
Regarding `FC(F)(F)Oc1ccccc1Nc1ncnn1-c1cccc(Cl)c1Cl`, the IC50 at P2X purinoceptor 7 [1] was 5500 nM; at P2X purinoceptor 7 [2], 617 nM.
As to `COc1ccc(CNc2ncnn2-c2cccc(Cl)c2Cl)cc1`, the results for the IC50 on P2X purinoceptor 7 [1] and at P2X purinoceptor 7 [2] were 10500 nM and 1620 nM, respectively.
`Clc1cccc(-n2ncnc2NCc2cccnc2N2CCOCC2)c1Cl`: the IC50 is 214 nM at P2X purinoceptor 7 [1] and 28.2 nM on P2X purinoceptor 7 [2].
For the molecule `Cc1ncccc1CNc1ncnn1-c1cccc(Cl)c1Cl`, the IC50 at P2X purinoceptor 7 [1] was 295 nM; at P2X purinoceptor 7 [2], 11.7 nM.

A word on the IC50: it is the concentration that inhibits the measured activity by half.
